As a reminder, the pIC50 is the IC50 on a negative log10 scale, so that one unit is a factor of ten.

pIC50: −log10 of the molar value. Counter-ions that a name gives are not always drawn.

Chain of ATM (Q13315 whole entry): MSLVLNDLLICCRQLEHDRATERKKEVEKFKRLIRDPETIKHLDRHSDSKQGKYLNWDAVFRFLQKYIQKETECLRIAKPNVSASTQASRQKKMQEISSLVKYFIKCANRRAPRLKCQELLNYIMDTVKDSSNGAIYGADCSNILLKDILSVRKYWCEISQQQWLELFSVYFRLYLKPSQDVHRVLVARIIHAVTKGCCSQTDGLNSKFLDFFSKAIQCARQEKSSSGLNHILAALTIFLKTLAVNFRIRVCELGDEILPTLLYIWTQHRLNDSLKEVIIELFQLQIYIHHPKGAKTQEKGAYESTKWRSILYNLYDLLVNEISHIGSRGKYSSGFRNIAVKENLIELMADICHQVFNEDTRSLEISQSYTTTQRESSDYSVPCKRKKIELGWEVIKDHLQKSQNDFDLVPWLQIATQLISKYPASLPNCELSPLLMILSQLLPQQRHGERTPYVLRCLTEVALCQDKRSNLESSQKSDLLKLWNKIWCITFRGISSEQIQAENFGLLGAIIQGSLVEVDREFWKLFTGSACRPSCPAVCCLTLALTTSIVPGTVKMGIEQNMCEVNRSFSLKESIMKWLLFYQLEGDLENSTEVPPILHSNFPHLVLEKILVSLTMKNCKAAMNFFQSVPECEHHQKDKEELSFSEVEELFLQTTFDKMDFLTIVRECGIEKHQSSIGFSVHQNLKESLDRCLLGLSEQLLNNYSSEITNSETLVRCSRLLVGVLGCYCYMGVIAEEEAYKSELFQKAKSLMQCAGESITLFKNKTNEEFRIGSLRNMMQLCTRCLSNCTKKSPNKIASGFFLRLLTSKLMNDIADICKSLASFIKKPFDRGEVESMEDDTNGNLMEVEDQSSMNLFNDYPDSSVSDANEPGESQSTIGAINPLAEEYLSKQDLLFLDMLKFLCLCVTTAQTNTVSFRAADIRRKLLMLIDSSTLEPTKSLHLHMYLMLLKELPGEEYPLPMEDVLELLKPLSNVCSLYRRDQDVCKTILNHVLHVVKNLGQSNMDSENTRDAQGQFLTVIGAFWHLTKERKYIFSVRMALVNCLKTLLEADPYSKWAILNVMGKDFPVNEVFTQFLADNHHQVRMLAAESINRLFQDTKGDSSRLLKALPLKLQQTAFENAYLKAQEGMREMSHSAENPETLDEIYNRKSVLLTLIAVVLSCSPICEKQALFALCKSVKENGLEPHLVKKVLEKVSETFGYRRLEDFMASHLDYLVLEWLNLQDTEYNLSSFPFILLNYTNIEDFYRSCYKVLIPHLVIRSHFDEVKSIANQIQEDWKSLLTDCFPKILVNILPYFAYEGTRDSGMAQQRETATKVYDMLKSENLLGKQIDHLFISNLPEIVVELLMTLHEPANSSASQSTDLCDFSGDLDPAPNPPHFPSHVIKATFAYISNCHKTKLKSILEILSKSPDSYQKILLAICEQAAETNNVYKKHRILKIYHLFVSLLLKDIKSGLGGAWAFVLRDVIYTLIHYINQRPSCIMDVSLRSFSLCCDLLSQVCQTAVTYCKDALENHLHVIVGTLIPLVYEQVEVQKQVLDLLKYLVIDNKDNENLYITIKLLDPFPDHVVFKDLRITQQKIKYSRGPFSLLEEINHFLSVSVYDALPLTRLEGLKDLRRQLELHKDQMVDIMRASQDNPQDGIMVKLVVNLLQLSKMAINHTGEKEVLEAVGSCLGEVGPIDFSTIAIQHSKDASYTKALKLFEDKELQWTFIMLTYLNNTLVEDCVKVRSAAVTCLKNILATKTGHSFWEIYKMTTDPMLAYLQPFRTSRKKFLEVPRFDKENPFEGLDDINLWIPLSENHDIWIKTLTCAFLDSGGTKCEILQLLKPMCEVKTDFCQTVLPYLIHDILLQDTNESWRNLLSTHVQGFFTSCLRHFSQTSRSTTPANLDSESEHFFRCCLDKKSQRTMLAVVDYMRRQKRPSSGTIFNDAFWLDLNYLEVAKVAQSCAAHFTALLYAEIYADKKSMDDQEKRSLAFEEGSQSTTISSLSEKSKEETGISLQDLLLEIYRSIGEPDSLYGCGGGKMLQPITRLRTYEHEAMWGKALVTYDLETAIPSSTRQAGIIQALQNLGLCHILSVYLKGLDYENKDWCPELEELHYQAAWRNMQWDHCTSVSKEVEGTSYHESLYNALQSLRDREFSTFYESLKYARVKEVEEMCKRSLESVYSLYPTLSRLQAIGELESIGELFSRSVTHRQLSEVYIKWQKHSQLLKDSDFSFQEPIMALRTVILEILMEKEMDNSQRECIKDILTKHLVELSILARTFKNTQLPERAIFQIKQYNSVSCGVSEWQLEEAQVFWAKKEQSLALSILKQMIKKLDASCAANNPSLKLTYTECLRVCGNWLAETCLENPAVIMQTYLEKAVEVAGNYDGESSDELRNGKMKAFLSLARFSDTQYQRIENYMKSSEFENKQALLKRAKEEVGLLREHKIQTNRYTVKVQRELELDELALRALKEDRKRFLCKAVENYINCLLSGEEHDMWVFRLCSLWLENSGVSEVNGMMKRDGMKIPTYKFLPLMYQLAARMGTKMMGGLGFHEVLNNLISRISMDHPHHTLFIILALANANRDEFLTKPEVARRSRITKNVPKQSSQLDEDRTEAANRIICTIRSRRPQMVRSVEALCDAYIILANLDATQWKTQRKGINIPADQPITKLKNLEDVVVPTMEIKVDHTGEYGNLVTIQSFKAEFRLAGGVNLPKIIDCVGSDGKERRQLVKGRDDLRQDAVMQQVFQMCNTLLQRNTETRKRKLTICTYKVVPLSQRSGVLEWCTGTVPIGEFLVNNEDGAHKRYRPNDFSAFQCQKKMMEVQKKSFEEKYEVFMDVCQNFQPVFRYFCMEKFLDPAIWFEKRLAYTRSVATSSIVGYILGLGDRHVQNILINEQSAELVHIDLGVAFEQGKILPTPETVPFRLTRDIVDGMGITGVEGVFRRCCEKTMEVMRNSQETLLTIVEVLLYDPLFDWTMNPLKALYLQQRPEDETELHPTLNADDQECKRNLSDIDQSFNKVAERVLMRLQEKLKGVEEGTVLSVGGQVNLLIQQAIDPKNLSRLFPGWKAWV

This test concerns the target ATM (Homo sapiens (Human), UniProt Q13315). Briefly: ATM in Cell Western Assay (pKAP1 in etoposide-treated MCF-7 cells). The class given is cell-based. Particulars: pKAP1 in etoposide-treated MCF-7 cells. The gist of the method:
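After paraformaldehyde fixation and Triton X-100 permeabilization, immunostained plates were read by infrared scanning (ODYSSEY CLx). Compound was given as 10 doses, 3-fold dilutions from a 1 μM final top concentration.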
`CN1C(=O)C2(CCC2)c2c1cnc1cc(F)c(-c3cnc(OCCNCC(F)(F)F)c(NS(C)(=O)=O)c3)cc21` [Example 378, N-(5-(7′-Fluoro-3′-methyl-2′-oxo-2′,3′-dihydrospiro [cyclobutane-1,1′-pyrrolo[2.3-c]quinolin]-8′-yl)-2-(2-((2,2,2-trifluoroethyl)amino)ethoxy)pyridin-3-yl) methanesulfonamide hydrochloride]: the negative logarithm of the IC50 (pIC50) was below 7.00.

For the compound `CN1C(=O)C2(CCC2)c2c1cnc1cc(F)c(-c3cnc(OCCNCC(F)F)c(NS(C)(=O)=O)c3)cc21` [Example 379, N-(2-(2-((2,2-Difluoroethyl)amino)ethoxy)-5-(7fluoro-3′-methyl-2′-oxo-2′,3′-dihydrospiro[cyclobutane-1,1′-pyrrole[2,3-c]quinolin]-8′-yl)pyridin-3-yl) methanesulfonamide], the pIC50 was below 7.00.

Consider `CN1C(=O)C2(CCC2)c2c1cnc1cc(F)c(-c3cnc(OCCNCCF)c(NS(C)(=O)=O)c3)cc21` [Example 380, N-(5-(7′-Fluoro-3′-methyl-2′-oxo-2′,3′-dihydrospiro [cyclobutane-1,1′-pyrrolo[2.3-c]quinolin]-8′-yl)-2-(2-((2-fluoroethyl)amino)ethoxy)pyridin-3-yl) methanesulfonamide hydrochloride], for which the negative logarithm of the IC50 (pIC50) is 7.00 to 9.00.

Compound `CC(C)NCCOc1ncc(-c2cc3c(cc2F)ncc2c3[C@]3(C[C@H](O)C3)C(=O)N2C)cc1NS(C)(=O)=O` [Example 381, cis-N-(5-(7′-Fluoro-3-hydroxy-3′-methyl-2′-oxo-2′,3′-dihydrospiro[cyclobutane-1,1′-pyrrolo[2,3-c]quinolin]-8′-yl)-2-(2-(isopropylamino)ethoxy)pyridin-3-yl)methanesulfonamide hydrochloride] had a pIC50 of 7.00 to 9.00.

Compound `CC(C)NCCOc1ncc(-c2cc3c(cc2F)ncc2c3[C@]3(C[C@@H](O)C3)C(=O)N2C)cc1NS(C)(=O)=O` [Example 382, trans-N-(5-(7′-Fluoro-3-hydroxy-3′-methyl-2′-oxo-2′,3′-dihydrospiro[cyclobutane-1,1′-pyrrolo[2,3-c]quinolin]-8′-yl)-2-(2-(isopropylamino)ethoxy)pyridin-3-yl)methanesulfonamide] showed a pIC50 of 7.00 to 9.00.

Compound `CO[C@H]1C[C@@]2(C1)C(=O)N(C)c1cnc3cc(F)c(-c4cnc(OCCNC(C)C)c(NS(C)(=O)=O)c4)cc3c12` [Example 386] had a pIC50 of 7.00 to 9.00.

`CCO[C@H]1C[C@@]2(C1)C(=O)N(C)c1cnc3cc(F)c(-c4cnc(OCCNC(C)C)c(NS(C)(=O)=O)c4)cc3c12` [Example 394, trans-N-(5-(3-Ethoxy-7′-fluoro-3′-methyl-2′-oxo-2′,3′-dihydrospiro[cyclobutane-1,1′-pyrrolo[2,3-c]quinolin]-8′-yl)-2-(2-(isopropylamino)ethoxy)pyridin-3-yl)methanesulfonamide] showed a negative logarithm of the IC50 (pIC50) of 7.00 to 9.00.

Take `CC(C)NCCOc1ncc(-c2cc3c(cc2F)ncc2c3[C@]3(C[C@@H](OC(C)C)C3)C(=O)N2C)cc1NS(C)(=O)=O` [Example 396, trans-N-(5-(7′-Fluoro-3-isopropoxy-3′-methyl-2′-oxo-2′,3′-dihydrospiro[cyclobutane-1,1′-pyrrolo[2,3-c]quinolin]-8′-yl)-2-(2-(isopropylamino)ethoxy)pyridin-3-yl)methanesulfonamide]: the pIC50 was 7.00 to 9.00.

In the case of `CC(C)NCCOc1ncc(-c2cc3c(cc2F)ncc2c3[C@]3(C[C@@H](OC(C)c4ccccc4)C3)C(=O)N2C)cc1NS(C)(=O)=O` (stereo partly drawn) [Example 398, trans-N-(5-(7′-Fluoro-3′-methyl-2′-oxo-3-(1-phenylethoxy)-2′,3′-dihydrospiro[cyclobutane-1,1′-pyrrolo[2,3-c]quinolin]-8′-yl)-2-(2-(isopropylamino)ethoxy)pyridin-3-yl)methanesulfonamide], the pIC50 was below 7.00.

`CN(C)CCCOc1c(NS(C)(=O)=O)cc(-c2ccc3ncc4c(c3c2)C2(CCC2)C(=O)N4C)cc1C(=O)O` [Example 399, 2-(3-(Dimethylamino)propoxy)-5-(3′-methyl-2′-oxo-2′,3′-dihydrospiro[cyclobutane-1,1′-pyrrolo[2,3-c]quinolin]-8′-yl)-3-(methylsulfonamido)benzoic acid]: the pIC50 is below 7.00.

On to `CC(C)NCCOc1ncc(-c2cc3c(cc2F)ncc2c3[C@]3(C[C@@H](Oc4ccccc4)C3)C(=O)N2C)cc1NS(C)(=O)=O` [Example 401, trans-N-(5-(7′-Fluoro-3′-methyl-2′-oxo-3-phenoxy-2′,3′-dihydrospiro[cyclobutane-1,1′-pyrrolo[2,3-c]quinolin]-8′-yl)-2-(2-(isopropylamino)ethoxy)pyridin-3-yl)methanesulfonamide], for which the pIC50 was 7.00 to 9.00.

For the compound `CC(C)NCCOc1ncc(-c2cc3c(cc2F)ncc2c3[C@]3(C[C@@H](Oc4ccccc4)C3)C(=O)N2C)cc1NS(=O)(=O)N(C)C` [Example 403, trans-S′-{5-[(Dimethylsulfamoyl)amino]-6-{2-[(propan-2-ylamino]ethoxy}pyridine-3-yl}-7′-fluoro-3′-methyl-3-phenoxy-2′,3′-dihydrospiro[cyclobutane-1,1′-pyrrolo[2,3-c]quinoline]-2′-one hydrochloride], the pIC50 was below 7.00.

In turn, `COC[C@H]1C[C@@]2(C1)C(=O)N(C)c1cnc3cc(F)c(-c4cnc(OCCNC(C)C)c(NS(C)(=O)=O)c4)cc3c12` [Example 405, trans-N-(5-(7′-Fluoro-3-(methoxymethyl)-3′-methyl-2′-oxo-2′,3′-dihydrospiro[cyclobutane-1,1′-pyrrolo[2,3-c]quinolin]-8′-yl)-2-(2-(isopropylamino)ethoxy)pyridin-3-yl)methanesulfonamide] gave a pIC50 of 7.00 to 9.00.

As for `CCOC[C@H]1C[C@@]2(C1)C(=O)N(C)c1cnc3cc(F)c(-c4cnc(OCCNC(C)C)c(NS(C)(=O)=O)c4)cc3c12` [Example 407, trans-N-(5-(3-(Ethoxymethyl)-7′-fluoro-3′-methyl-2′-oxo-2′,3′-dihydrospiro[cyclobutane-1,1′-pyrrolo[2,3-c]quinolin]-8′-yl)-2-(2-(isopropylamino)ethoxy)pyridin-3-yl)methanesulfonamide], the negative logarithm of the IC50 (pIC50) was 7.00 to 9.00.

In turn, `CC(C)NCCOc1ncc(-c2cc3c(cc2F)ncc2c3[C@]3(C[C@@H](COc4ccccc4)C3)C(=O)N2C)cc1NS(C)(=O)=O` [Example 408, trans-N-(5-(7′-Fluoro-3′-methyl-2′-oxo-3-(phenoxymethyl)-2′,3′-dihydrospiro[cyclobulane-1,1′-pyrrolo[2,3-c]quinolin]-8′-yl)-2-(2-(isopropylamino)ethoxy)pyridin-3-yl)methanesulfonamide] gave a negative-log IC50 (pIC50) of 7.00 to 9.00.

`CC(C)NCCOc1ncc(-c2cc3c(cc2F)ncc2c3[C@]3(C[C@@H](COC(C)C)C3)C(=O)N2C)cc1NS(C)(=O)=O` [Example 411, trans-N-{5-(7′-Fluoro-3-(isopropoxymethyl)-3′-methyl-2′-oxo-2′,3′-dihydrospiro[cyclobutane-1,1′-pyrrolo[2,3-c]quinolin]-8′-yl)-2-(2-(isopropylamino)ethoxy)pyridin-3-yl)methanesulfonamide] had a negative-log IC50 (pIC50) of 7.00 to 9.00.

With `CC(C)NCCOc1ncc(-c2cc3c(cc2F)ncc2c3[C@]3(C[C@@H](COC(C)C)C3)C(=O)N2C)cc1NS(=O)(=O)C(C)C` [Example 413, trans-N-{5-(7′-Fluoro-3-(isopropoxymethyl)-3′-methyl-2′-oxo-2′,3′-dihydrospiro[cyclobutane-1,1′-pyrrolo[2,3-c]quinolin]-8′-yl)-2-(2-(isopropylamino)ethoxy)pyridin-3-yl)propane-2-sulfonamide], the negative logarithm of the IC50 (pIC50) was 7.00 to 9.00.

The values are drawn from US12187742B2 (XRAD Therapeutics, Inc., priority 2018, dated 2025).
